Reference: paper PMC6934184, “Selective DNA-PKcs inhibition extends the therapeutic index of localized radiotherapy and chemotherapy” (The Journal of Clinical Investigation, 2019)

Biological target: T1, PIK3C2B (PI3K-C2 beta) (Homo sapiens, UniProt O00750)
T1 construct: purchased Thermo Fisher Scientific (Life Technologies) SelectScreen
Assay: SelectScreen Adapta
Type: biochemical
Details: ATP 10 µM
Outline: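 SelectScreen broad panel; activity (Z'LYTE, Adapta) plus binding formats. ATP: Km app for CSF1R Z'LYTE; 10 for CAMK1 Adapta. Readout = % per kinase.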

T1 sequence (O00750 whole entry): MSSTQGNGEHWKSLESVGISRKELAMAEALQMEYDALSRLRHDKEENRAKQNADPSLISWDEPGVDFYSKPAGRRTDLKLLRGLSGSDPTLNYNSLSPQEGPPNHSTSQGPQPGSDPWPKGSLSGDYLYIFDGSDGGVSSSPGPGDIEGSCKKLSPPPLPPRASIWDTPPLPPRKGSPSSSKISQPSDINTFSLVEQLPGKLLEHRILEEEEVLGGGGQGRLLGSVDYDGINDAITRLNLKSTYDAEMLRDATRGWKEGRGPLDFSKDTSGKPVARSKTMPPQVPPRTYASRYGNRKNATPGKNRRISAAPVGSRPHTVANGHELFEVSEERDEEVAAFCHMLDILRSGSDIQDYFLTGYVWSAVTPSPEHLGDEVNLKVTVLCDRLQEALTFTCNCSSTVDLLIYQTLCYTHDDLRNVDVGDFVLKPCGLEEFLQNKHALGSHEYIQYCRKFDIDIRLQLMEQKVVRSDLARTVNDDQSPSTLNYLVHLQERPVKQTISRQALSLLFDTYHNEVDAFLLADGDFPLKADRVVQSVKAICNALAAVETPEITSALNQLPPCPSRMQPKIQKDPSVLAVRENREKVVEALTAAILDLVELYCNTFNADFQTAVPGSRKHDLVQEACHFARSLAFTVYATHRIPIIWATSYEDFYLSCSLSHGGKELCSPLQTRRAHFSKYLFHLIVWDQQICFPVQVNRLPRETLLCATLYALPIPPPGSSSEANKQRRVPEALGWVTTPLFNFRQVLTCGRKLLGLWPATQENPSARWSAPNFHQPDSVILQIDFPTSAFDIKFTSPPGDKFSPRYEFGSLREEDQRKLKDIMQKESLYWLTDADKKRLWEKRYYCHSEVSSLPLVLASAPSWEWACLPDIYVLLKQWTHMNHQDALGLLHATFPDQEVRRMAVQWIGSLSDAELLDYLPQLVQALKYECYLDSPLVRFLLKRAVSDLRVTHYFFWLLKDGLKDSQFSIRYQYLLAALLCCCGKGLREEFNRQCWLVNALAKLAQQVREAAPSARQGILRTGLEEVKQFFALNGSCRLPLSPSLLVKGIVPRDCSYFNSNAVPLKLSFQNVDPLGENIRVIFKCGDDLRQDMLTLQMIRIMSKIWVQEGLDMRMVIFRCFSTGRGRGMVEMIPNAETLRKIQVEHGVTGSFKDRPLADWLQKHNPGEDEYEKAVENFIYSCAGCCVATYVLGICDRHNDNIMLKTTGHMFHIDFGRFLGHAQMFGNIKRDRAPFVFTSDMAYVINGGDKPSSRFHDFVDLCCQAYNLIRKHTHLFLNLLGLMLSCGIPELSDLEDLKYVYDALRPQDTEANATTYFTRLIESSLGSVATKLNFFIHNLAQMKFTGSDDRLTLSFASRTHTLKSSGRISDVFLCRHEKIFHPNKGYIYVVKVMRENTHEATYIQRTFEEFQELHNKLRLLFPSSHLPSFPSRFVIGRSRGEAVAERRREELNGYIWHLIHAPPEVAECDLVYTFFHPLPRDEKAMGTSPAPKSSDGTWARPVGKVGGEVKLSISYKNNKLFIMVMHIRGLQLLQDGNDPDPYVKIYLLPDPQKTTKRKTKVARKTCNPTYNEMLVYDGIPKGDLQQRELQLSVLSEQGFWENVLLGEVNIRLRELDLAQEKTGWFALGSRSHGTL

## CN(C(=O)CN1CCOCC1)c1ccc2sc3c(-c4cccc5c(=O)cc(N6CC7CCC(C6)O7)oc45)cccc3c2c1 [NU5455]
  inhibition at 1 µM: 28.9%
